The values that follow come from patent US20150031655A1, “COMBINATION OF LIVER X RECEPTOR MODULATOR AND ESTROGEN RECEPTOR MODULATOR FOR THE TREATMENT OF AGE-RELATED DISEASES” (UNIVERSITY OF NORTH DAKOTA, priority 2011, published 2015).

For one test, the target named is T1, LXRβ (Homo sapiens, UniProt P55055).
T1 sequence (P55055 1-460): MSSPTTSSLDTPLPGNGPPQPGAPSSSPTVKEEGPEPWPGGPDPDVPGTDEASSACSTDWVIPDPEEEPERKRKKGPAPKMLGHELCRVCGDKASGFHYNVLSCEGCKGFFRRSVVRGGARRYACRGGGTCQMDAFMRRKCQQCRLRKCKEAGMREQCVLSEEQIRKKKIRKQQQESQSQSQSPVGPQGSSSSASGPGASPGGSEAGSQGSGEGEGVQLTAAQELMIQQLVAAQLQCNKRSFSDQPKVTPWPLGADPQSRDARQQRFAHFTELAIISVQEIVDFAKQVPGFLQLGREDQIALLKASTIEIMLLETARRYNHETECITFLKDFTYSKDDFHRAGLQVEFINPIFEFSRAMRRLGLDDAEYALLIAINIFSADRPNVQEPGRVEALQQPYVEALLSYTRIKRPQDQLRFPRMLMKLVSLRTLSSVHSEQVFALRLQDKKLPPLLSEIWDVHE
Kind of test: ChIP, LXRβ binding to the LXRE in the α-synuclein promoter. The class given is cell-based. Also on record: endogenous in cells; host or cells: SH-SY5Y human neuroblastoma cells. As to conditions: SH-SY5Y. On the procedure: (§1) Human neuroblastoma SH-SY5Y cells were grown in DMEM/F12 medium containing 10% fetal bovine serum (FBS) and 1% antibiotic/antimycotic mix. Cells were maintained at 37° C. in a saturated humidity atmosphere containing 95% air and 5% CO2.
ChIP analysis was performed to evaluate the extent of ERα/ERβ and LXRα/LXRβ binding to the DNA elements in the TH promoter and α-synuclein promoter regions respectively using “SimpleChIP™ Enzymatic Chromatic IP kit” from Cell Signaling (Boston, Mass.).
Briefly, cells from each treatment group (3×10^6 cells) were washed with PBS, trypsinized, centrifuged at 5000 g. The pellet containing the cells was further washed with PBS and cross-linked using 37% formaldehyde for 15 min followed by the addition of glycine solution to cease the cross-linking reaction.
The cells were washed with 4× volumes of 1×PBS and centrifuged at ˜220 g for 5 min. The pellet was resuspended and incubated for 10 min in 5 ml of tissue lysis buffer containing DTT and protease and phosphatase inhibitors. The subsequent steps to isolate the cross-linked chromatin were performed according to the manufacturer's protocol.
The cross-linked chromatin from each sample was apportioned into four equal parts. One quarter of the cross-linked chromatin was set aside as “input.” One quarter of the cross-linked chromatin from each sample was incubated with 5 μg of anti-ERα mouse antibody (Cell Signaling, Boston, Mass.) and 5 μg of anti-ERβ rabbit antibody (Upstate, Bedford, Mass.), or 5 μg of anti-LXRα rabbit antibody (Abcam, Cambridge, Mass.) and 5 μg of anti-LXRβ mouse antibody (Abcam, Cambridge, Mass.), while the remaining one quarter of the cross-linked chromatin from each sample was incubated with 5 μg of normal Rabbit IgG to serve as negative control.
The cross-linked chromatin samples were incubated overnight at 4° C. with their respective antibodies. The DNA-protein complexes were collected with Protein G agarose beads and washed to remove non-specific antibody binding. The DNA from the DNA-protein complexes from all the samples including the input and negative control was reverse cross-linked by incubation with 2 μL of Proteinase K for 2 hours at 65° C.
The crude DNA extract was eluted and then washed several times with wash buffer containing ethanol (provided with the kit) followed by purification with the use of DNA spin columns provided by the manufacturer. The pure DNA was eluted out of the DNA spin columns using 50 μL of the DNA elution buffer provided in the kit. 1 μL of the purified DNA was used for DNA concentration analysis using the “Quant-iT™ dsDNA Assay kit” from Invitrogen (Carlsbad, Calif.). The DNA fragment size was determined by electrophoresis on a 1.2% agarose FlashGel^R system (Lonza, Rockland, Me.).
The relative abundance of the ERα or ERβ antibody precipitated chromatin containing the ERE in the TH promoter region and LXRα or LXRβ antibody precipitated chromatin containing the LXRE in the α-synuclein promoter region was determined by qPCR using an iQ SYBR Green Supermix kit following the manufacturer's instructions (BioRad, Hercules, Calif.) and sequence specific primers (See Table 1 above). […] The fold enrichment of the ERE in the TH promoter region and LXRE in the α-synuclein promoter region was calculated using the ΔΔCt method (K. J. Livak et al., Methods, 25, 402 (2001)) which normalizes ChIP Ct values of each sample to the % input and background.

The test system of the next test is α-synuclein mRNA. Kind of test: Real time RT-PCR of α-synuclein mRNA in SH-SY5Y cells. The class given is cell-based, human. The conditions noted are these: for increase in α-synuclein mRNA expression: 24 h; for 27-OHC-induced increase in α-synuclein mRNA: co-treatment with 10 μM 27-OHC. On the procedure: as §1
Total RNA was isolated and extracted from treated cells using the 5 prime “PerfectPure RNA tissue kit” (5 Prime, Inc., Gaithersburg, Md.). RNA estimation was performed using “Quant-iT RNA Assay Kit” using a Qubit fluorometer according to the manufacturer's protocol (Invitrogen, Carlsbad, Calif.). cDNA was synthesized by reverse transcribing 1 μg of extracted RNA using an “iScript cDNA synthesis kit” (BioRad, Hercules, Calif.). The oligomeric primers (Sigma, St Louis, Mo.) used to amplify the TH mRNA and α-synuclein mRNA are enumerated in Table 1. The cDNA amplification was performed using an iQ SYBR Green Supermix kit following the manufacturer's instructions (BioRad, Hercules, Calif.). The amplification was performed using an iCycler iQ Multicolor Real Time PCR Detection System (BioRad, Hercules, Calif.). The expression of specific TH and α-synuclein transcripts amplified were normalized to the expression of glyceraldehyde-3-phosphate dehydrogenase (GAPDH).
A general note: In qPCR the cycle at which signal appears reflects the starting amount.

SMILES strings stand for the structures.

`C[C@@H](CO)CCC[C@@H](C)[C@H]1CC[C@H]2[C@@H]3CC=C4C[C@@H](O)CC[C@]4(C)[C@H]3CC[C@]12C` [27-OHC, 27-hydroxycholesterol]: the “increase of LXRβ binding to the LXRE in the α-synuclein promoter” value at LXRβ (treatment alone vs control) was roughly 3 fold. In addition, in the test on α-synuclein mRNA (treatment alone vs control), the “increase in α-synuclein mRNA expression” value is listed as 9 fold.
In the case of `CC(C)CCC[C@@H](C)[C@H]1CC[C@H]2[C@@H]3C[C@@H]4O[C@@]45C[C@@H](OS(=O)(=O)O)CC[C@]5(C)[C@H]3CC[C@]12C` [ECHS, 5α,6α-epoxycholesterol-3-sulfate], the “27-OHC-induced increase in LXRβ binding to the LXRE” value on LXRβ (co-treatment with 27-OHC) is listed as “significantly reversed”. For the same molecule, the “decrease in LXRβ binding to the LXRE on the α-synuclein promoter” value on LXRβ (treatment alone vs control) is given as roughly 2.8 fold. The “27-OHC-induced increase in α-synuclein mRNA” value in the test on α-synuclein mRNA was “marked attenuation”. Moreover, in the test on α-synuclein mRNA (treatment alone vs control), the “α-synuclein mRNA levels” value is given as “no effect”.
Consider `Cl.O=C(O)Cc1cccc(OCCCN(Cc2cccc(C(F)(F)F)c2Cl)CC(c2ccccc2)c2ccccc2)c1` [GW3965, 3-[3-[N-(2-Chloro-3-trifluoromethylbenzyl)-(2,2-diphenylethyl)amino]propyloxy]phenylacetic acid hydrochloride], for which, on LXRβ (in combination with 27-OHC), the “increase of LXRβ binding to the LXRE on the α-synuclein promoter” value amounted to 4 fold. In addition, the “increase of LXRβ binding to the LXRE in the α-synuclein promoter” value on LXRβ (treatment alone vs control) stood at 3.5 fold. Also, the “increase in α-synuclein mRNA expression” value in the test on α-synuclein mRNA (treatment alone vs control) is reported as 10 fold. For the same molecule, in the test with α-synuclein mRNA, the “27-OHC-induced increase in α-synuclein mRNA” value is recorded as “not mRNA levels”.
